As a reminder, the IC50 is the concentration needed to halve the response being measured.

T1 sequence (Q07343 whole entry): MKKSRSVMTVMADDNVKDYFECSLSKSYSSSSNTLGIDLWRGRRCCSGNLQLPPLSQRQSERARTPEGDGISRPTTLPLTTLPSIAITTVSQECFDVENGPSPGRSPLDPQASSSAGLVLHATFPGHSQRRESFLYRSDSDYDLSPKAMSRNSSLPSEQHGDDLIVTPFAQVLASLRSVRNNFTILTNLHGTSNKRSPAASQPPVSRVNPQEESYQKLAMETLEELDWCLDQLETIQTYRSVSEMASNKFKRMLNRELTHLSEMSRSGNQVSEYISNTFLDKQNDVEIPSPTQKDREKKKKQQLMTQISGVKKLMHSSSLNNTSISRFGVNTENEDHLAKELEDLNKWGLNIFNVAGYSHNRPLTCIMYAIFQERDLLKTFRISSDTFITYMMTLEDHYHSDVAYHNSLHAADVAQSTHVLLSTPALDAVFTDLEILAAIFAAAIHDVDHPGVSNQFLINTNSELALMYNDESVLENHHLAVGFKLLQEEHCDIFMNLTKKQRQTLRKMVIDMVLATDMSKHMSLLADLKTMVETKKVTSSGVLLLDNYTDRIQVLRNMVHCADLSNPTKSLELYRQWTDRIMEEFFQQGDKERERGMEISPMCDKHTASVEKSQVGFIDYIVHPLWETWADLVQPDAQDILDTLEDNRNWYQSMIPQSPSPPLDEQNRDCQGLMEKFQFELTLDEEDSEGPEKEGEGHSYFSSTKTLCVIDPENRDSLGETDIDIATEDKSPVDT

The first test concerns the target T1, human PDE4B1 (Homo sapiens, UniProt Q07343).
T1 construct: host or cells: Sf9 cells
The experiment in a line: cAMP HTRF assay to determine the activity of hPDE4B1. The test is classed as biochemical. Particulars: 1 μM test concentration; human recombinant PDE4B1, cAMP 40 nM; read-out: Inhibition at 1 μM test concentration [%] (Percentage inhibition of PDE4B). The protocol: cAMP HTRF® Assay to Determine the Activity of hPDE4B1
The inhibiting effect of the compounds on the enzyme activity of human PDE4B1 was measured by the quantification of 5′-adenosine monophosphate (5′-AMP), which is formed from 3′,5′-adenosine monophosphate (cAMP). Human recombinant enzyme, expressed in Sf9 cells, and the HTRF (homogeneous time-resolved fluorescence) detection method were used in the assay.
The test compound or water (control) was mixed with the human recombinant PDE4B1 enzyme (4.8 U) in a buffer consisting of 44.4 mM tris-HCl, 5.28 mM MgCl2, 2.64 mM DTT and 0.044% Tween 20 (pH 7.8). After adding the cAMP enzyme substrate (final concentration 40 nM) the mixture was incubated for 30 minutes at room temperature. Then a fluorescence acceptor (Dye2 marked with cAMP), a fluorescence donor (anti-cAMP antibody marked with a europium cryptate) and the non-specific phosphodiesterase inhibitor IBMX (3-isobutyl-1-methylxanthine; final concentration 1 mM) were added. After 60 minutes the fluorescence transfer, which correlates with the amount of remaining cAMP, was measured with a microplate reader (Rubystar, BMG) at λex=337 nm, λem=620 nm and λem=665 nm. The enzyme activity was calculated from the quotient formed from the measured signal at 665 nm and that at 620 nm. The result was expressed as the percentage inhibition of enzyme activity of the control (without PDE4 inhibitor) (literature: N. Saldou et al., Comparison of recombinant human PDE4 isoforms: interaction with substrate and inhibitors, Cell. Signal. Vol. 10, No. 6, 427-440, 1998). The enzyme was omitted for measurement of the basal control.
Background: Time-resolved FRET reads energy transfer from a long-lived donor to a nearby acceptor.
Consider `O=C(O)c1ccc(Oc2nc(-c3ccc(Cl)s3)nc3c2CCC3)cc1` [Compound 8, 4-(2-(5-Chlorothiophen-2-yl)-6,7-dihydro-5H-cyclopenta[d]pyrimidin-4-yloxy)benzoic acid], for which the inhibition at 1 µM was 84%.
Take `COc1ccc(-c2nc3c(c(Oc4ccc(C(=O)O)cc4)n2)CCC3)cc1Cl` [Compound 5, 4-(2-(3-Chloro-4-methoxyphenyl)-6,7-dihydro-5H-cyclopenta[d]pyrimidin-4-yloxy)benzoic acid]: the inhibition at 1 µM was found to be 71%.
On the same count and under the same terms, for `O=C(O)Cc1ccc(Cc2nc(-c3ccc(Cl)s3)nc3c2CCC3)cc1` [Compound 9, 2-(4-((2-(5-Chlorothiophen-2-yl)-6,7-dihydro-5H-cyclopenta[d]pyrimidin-4-yl)methyl)phenyl)acetic acid] the value was 75%; for `Cc1ccc(-c2nc3c(c(Oc4ccc(CC(=O)O)cc4)n2)CCC3)s1` [Compound 58, 2-(4-((2-(5-Methylthiophen-2-yl)-6,7-dihydro-5H-cyclopenta[d]pyrimidin-4-yl)oxy)phenyl)acetic acid], 65%; for `COc1ccc(-c2nc3c(c(Oc4ccc(CC(=O)O)cc4)n2)CS(=O)(=O)C3)cc1Cl` [Compound 17, 2-[4-[[2-(3-Chloro-4-methoxy-phenyl)-6,6-dioxo-5,7-dihydro-thieno[3,4-d]pyrimidin-4-yl]oxy]-phenyl]-acetic acid], 95%.
Same read-out and setting: for `O=C(O)Cc1ccc(Oc2nc(-c3ccc(Cl)s3)nc3c2CSC3)cc1` [Compound 19, 2-(4-(2-(5-Chlorothiophen-2-yl)-5,7-dihydrothieno[3,4-d]pyrimidin-4-yloxy)phenyl)acetic acid] the value was 98%; for `NC(=O)c1ccc(-c2nc3c(c(Oc4ccc(CC(=O)O)cc4)n2)CCC3)s1` [Compound 47, 2-(4-(2-(5-Carbamoylthiophen-2-yl)-6,7-dihydro-5H-cyclopenta[d]pyrimidin-4-yloxy)phenyl)acetic acid], 79%.
As to `O=C(O)Cc1ccc(Oc2nc(-c3ccc(Cl)s3)nc3c2CCCC3)cc1` [Compound 10, 2-(4-(2-(5-Chlorothiophen-2-yl)-5,6,7,8-tetrahydroquinazolin-4-yloxy)phenyl)acetic acid], the inhibition at 1 µM is 49%.
As for `O=C(O)Cc1ccc(Oc2nc(-c3cccc(Br)c3)nc3c2CCC3)cc1` [Compound 54, 2-(4-((2-(3-Bromophenyl)-6,7-dihydro-5H-cyclopenta[d]pyrimidin-4-yl)oxy)phenyl)acetic acid], the inhibition at 1 µM came out at 42%.
Still for that read-out and setting: then `O=C(O)Cc1ccc(Oc2nc(-c3ccc(Cl)s3)nc3c2C[S+]([O-])C3)cc1` (stereo not drawn) [Compound 20, 2-[4-[[2-(5-Chloro-thiophen-2-yl)-6-oxo-5,7-dihydro-thieno[3,4-d]pyrimidin-4-yl]oxy]-phenyl]-acetic acid], with 103%; and `O=C(O)c1ccc(Oc2nc(-c3ccc(F)c(F)c3)nc3c2CCC3)cc1` [Compound 6, 4-(2-(3,4-Difluorophenyl)-6,7-dihydro-5H-cyclopenta[d]pyrimidin-4-yloxy)benzoic acid], with 55%.
In the case of `O=C(O)Cc1ccc(Oc2nc(-c3ccc(F)c(F)c3)nc3c2CCC3)cc1` [Compound 3, 2-(4-(2-(3,4-Difluorophenyl)-6,7-dihydro-5H-cyclopenta[d]pyrimidin-4-yloxy)phenyl)acetic acid], the inhibition at 1 µM worked out at 30%.
With `O=C(O)Cc1ccc(Oc2nc(-c3ccc(Cl)s3)nc3c2CC(F)(F)CC3)cc1` [Compound 12, 2-(4-(2-(5-Chlorothiophen-2-yl)-6,6-difluoro-5,6,7,8-tetrahydroquinazolin-4-yloxy)phenyl)acetic acid], the inhibition at 1 µM amounted to 23%.
`O=C(O)Cc1ccc(Oc2nc(-c3ccc(Cl)s3)nc3c2C[S+]([O-])CC3)cc1` (stereo not drawn) [Compound 23, 2-[4-[[2-(5-Chloro-thiophen-2-yl)-6-oxo-7,8-dihydro-5H-thiopyrano[4,3-d]pyrimidin-4-yl]oxy]-phenyl]-acetic acid]: the inhibition at 1 µM came out at 18%.
For the compound `O=C(O)Cc1ccc(Oc2nc(-c3ccc(Br)s3)nc3c2CCC3)cc1` [Compound 49, 2-(4-(2-(5-Bromothiophen-2-yl)-6,7-dihydro-5H-cyclopenta[d]pyrimidin-4-yloxy)phenyl)acetic acid], the inhibition at 1 µM is 59%.
With `O=C(O)Cc1ccc(Oc2nc(-c3ccc(Cl)s3)nc3c2CCC3)cc1` [Compound 7, 2-(4-(2-(5-Chlorothiophen-2-yl)-6,7-dihydro-5H-cyclopenta[d]pyrimidin-4-yloxy)phenyl)acetic acid], the inhibition at 1 µM was determined as 77%.
Still for that read-out and setting: then `O=C(O)Cc1ccc(Oc2nc(-c3ccc(Cl)s3)nc3c2CS(=O)(=O)CC3)cc1` [Compound 24, 2-[4-[[2-(5-Chloro-thiophen-2-yl)-6,6-dioxo-7,8-dihydro-5H-thiopyrano[4,3-d]pyrimidin-4-yl]oxy]-phenyl]-acetic acid], with 33%; and `N#Cc1ccc(-c2nc3c(c(Oc4ccc(CC(=O)O)cc4)n2)CCC3)s1` [Compound 48, 2-(4-(2-(5-Cyanothiophen-2-yl)-6,7-dihydro-5H-cyclopenta[d]pyrimidin-4-yloxy)phenyl)acetic acid], with 78%.
`O=C(O)Cc1ccc(Oc2nc(-c3ccc(Br)cc3)nc3c2CCC3)cc1` [Compound 53, 2-(4-((2-(4-Bromophenyl)-6,7-dihydro-5H-cyclopenta[d]pyrimidin-4-yl)oxy)phenyl)acetic acid]: the inhibition at 1 µM came out at 51%.
On to `O=C(O)Cc1ccc(Oc2nc(-c3cnc(Cl)s3)nc3c2CCC3)cc1` [Compound 46, 2-(4-(2-(2-Chlorothiazol-5-yl)-6,7-dihydro-5H-cyclopenta[d]pyrimidin-4-yloxy)phenyl)acetic acid], for which the inhibition at 1 µM worked out at 76%.
Turning to `CC1Cc2nc(-c3ccc(Cl)s3)nc(Oc3ccc(CC(=O)O)cc3)c2C1` (stereo not drawn) [Compound 59, 2-(4-((2-(5-Chlorothiophen-2-yl)-6-methyl-6,7-dihydro-5H-cyclopenta[d]pyrimidin-4-yl)oxy)phenyl)acetic acid], the inhibition at 1 µM was determined as 62%.
In the case of `COc1ccc(-c2nc3c(c(Oc4ccc(C(=O)O)cc4)n2)CCC3)cc1F` [Compound 4, 4-(2-(3-Fluoro-4-methoxyphenyl)-6,7-dihydro-5H-cyclopenta[d]pyrimidin-4-yloxy)benzoic acid], the inhibition at 1 µM stood at 62%.
Take `O=C(O)Cc1ccc(Oc2nc(-c3cncs3)nc3c2CCC3)cc1` [Compound 45, 2-(4-(2-(Thiazol-5-yl)-6,7-dihydro-5H-cyclopenta[d]pyrimidin-4-yloxy)phenyl)acetic acid]: the inhibition at 1 µM worked out at 55%.
On to `COc1ccc(-c2nc3c(c(Oc4ccc(CC(=O)O)cc4)n2)CCC3)cc1Cl` [Compound 2, 2-(4-(2-(3-Chloro-4-methoxyphenyl)-6,7-dihydro-5H-cyclopenta[d]pyrimidin-4-yloxy)phenyl)acetic acid], for which the inhibition at 1 µM was determined as 75%.
`COc1ccc(-c2nc3c(c(Oc4ccc(CC(=O)O)cc4)n2)CS(=O)(=O)C3)cc1F` [Compound 16, 2-[4-[[2-(3-Fluoro-4-methoxy-phenyl)-6,6-dioxo-5,7-dihydro-thieno[3,4-d]pyrimidin-4-yl]oxy]-phenyl]-acetic acid]: the inhibition at 1 µM amounted to 89%.
Take `CSc1ccc(-c2nc3c(c(Oc4ccc(CC(=O)O)cc4)n2)CCC3)s1` [Compound 51, 2-(4-(2-(5-(Methylthio)thiophen-2-yl)-6,7-dihydro-5H-cyclopenta[d]pyrimidin-4-yloxy)phenyl)acetic acid]: the inhibition at 1 µM is 84%.
On to `O=C(O)c1ccc(Oc2nc(-c3ccc(Cl)s3)nc3c2CCCC3)cc1` [Compound 11, 4-(2-(5-Chlorothiophen-2-yl)-5,6,7,8-tetrahydroquinazolin-4-yloxy)benzoic acid], for which the inhibition at 1 µM was 44%.
As to `CS(=O)(=O)c1ccc(-c2nc3c(c(Oc4ccc(CC(=O)O)cc4)n2)CCC3)s1` [Compound 52, 2-(4-(2-(5-(Methylsulfonyl)thiophen-2-yl)-6,7-dihydro-5H-cyclopenta[d]pyrimidin-4-yloxy)phenyl)acetic acid], the inhibition at 1 µM is 53%.
For the compound `O=C(O)Cc1ccc(Oc2nc(-c3ccc(Cl)s3)nc3c2CSCC3)cc1` [Compound 22, 2-(4-(2-(5-Chlorothiophen-2-yl)-7,8-dihydro-5H-thiopyrano[4,3-d]pyrimidin-4-yloxy)phenyl)acetic acid], the inhibition at 1 µM was determined as 50%.
The same measure, in the same setting: then `O=C(O)Cc1ccc(Oc2nc(-c3ccc(F)s3)nc3c2CS(=O)(=O)C3)cc1` [Compound 15, 2-[4-[[2-(5-Fluoro-thiophen-2-yl)-6,6-dioxo-5,7-dihydro-thieno[3,4-d]pyrimidin-4-yl]oxy]-phenyl]-acetic acid], with 86%.

Staying with this test, now noted: measured according to the cAMP HTRF hPDE4B1 assay; read-out: PDE4B IC50.
With `COc1ccc(-c2nc3c(c(Oc4ccc(CC(=O)O)cc4)n2)CS(=O)(=O)C3)cc1Cl` [Compound 17, 2-[4-[[2-(3-Chloro-4-methoxy-phenyl)-6,6-dioxo-5,7-dihydro-thieno[3,4-d]pyrimidin-4-yl]oxy]-phenyl]-acetic acid], the IC50 was less than 100 nM.
On the same count and under the same terms, then `O=C(O)Cc1ccc(Oc2nc(-c3ccc(Cl)s3)nc3c2CSC3)cc1` [Compound 19, 2-(4-(2-(5-Chlorothiophen-2-yl)-5,7-dihydrothieno[3,4-d]pyrimidin-4-yloxy)phenyl)acetic acid], with less than 100 nM.
Turning to `O=C(O)Cc1ccc(Oc2nc(-c3ccc(Cl)s3)nc3c2C[S+]([O-])C3)cc1` (stereo not drawn) [Compound 20, 2-[4-[[2-(5-Chloro-thiophen-2-yl)-6-oxo-5,7-dihydro-thieno[3,4-d]pyrimidin-4-yl]oxy]-phenyl]-acetic acid], the concentration for half-maximal inhibition (IC50) is less than 100 nM.
Turning to `O=C(O)Cc1ccc(Oc2nc(-c3ccc(Cl)s3)nc3c2CCC3)cc1` [Compound 7, 2-(4-(2-(5-Chlorothiophen-2-yl)-6,7-dihydro-5H-cyclopenta[d]pyrimidin-4-yloxy)phenyl)acetic acid], the IC50 was less than 100 nM.
Turning to `COc1ccc(-c2nc3c(c(Oc4ccc(CC(=O)O)cc4)n2)CS(=O)(=O)C3)cc1F` [Compound 16, 2-[4-[[2-(3-Fluoro-4-methoxy-phenyl)-6,6-dioxo-5,7-dihydro-thieno[3,4-d]pyrimidin-4-yl]oxy]-phenyl]-acetic acid], the half-inhibitory concentration (IC50) is less than 100 nM.
`O=C(O)Cc1ccc(Oc2nc(-c3ccc(F)s3)nc3c2CS(=O)(=O)C3)cc1` [Compound 15, 2-[4-[[2-(5-Fluoro-thiophen-2-yl)-6,6-dioxo-5,7-dihydro-thieno[3,4-d]pyrimidin-4-yl]oxy]-phenyl]-acetic acid]: the IC50 was less than 100 nM.

These data come from patent US9670189B2, “Substituted condensed pyrimidine compounds” (GRÜNENTHAL GMBH, priority 2013, dated 2017).
